Assays:
mouse splenocytes = assay: Inhibition of B Cell Activation as Measured by CD69 Expression in Mouse Splenocytes; assay type: cell-based; details: Splenocyte; C57/BL6 splenocytes, 3 ug/mL goat anti-mouse IgM, 18-20 hrs, CD69+ve cells within CD19; read-out: Mouse spleenocyte IC50
Procedure, shortened: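 Total mouse splenocytes pre-incubated with compounds (half-log dilutions; DMSO 200× stocks from 2 mM) 30 min at 37 °C, then stimulated with 3 ug/mL anti-mouse IgM for 18-20 hrs. CD69+ cells within CD19+ B cells quantified by flow cytometry; IC50 from variable-slope sigmoid dose-response fit.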

[1] = biological target: human Bruton's Tyrosine Kinase (Btk) (Homo sapiens (Human), UniProt Q06187); assay: Recombinant Human Bruton's Tyrosine Kinase (Btk) Inhibition Assay (HTRF KinEASE-TK); assay type: biochemical; details: 20 ng/ml rhBtk, 77 μM ATP (KM), 1 μM TK-Biotin substrate, 90 min; read-out: hBTK IC50
human Bruton's Tyrosine Kinase (Btk), sequence (Q06187 whole entry): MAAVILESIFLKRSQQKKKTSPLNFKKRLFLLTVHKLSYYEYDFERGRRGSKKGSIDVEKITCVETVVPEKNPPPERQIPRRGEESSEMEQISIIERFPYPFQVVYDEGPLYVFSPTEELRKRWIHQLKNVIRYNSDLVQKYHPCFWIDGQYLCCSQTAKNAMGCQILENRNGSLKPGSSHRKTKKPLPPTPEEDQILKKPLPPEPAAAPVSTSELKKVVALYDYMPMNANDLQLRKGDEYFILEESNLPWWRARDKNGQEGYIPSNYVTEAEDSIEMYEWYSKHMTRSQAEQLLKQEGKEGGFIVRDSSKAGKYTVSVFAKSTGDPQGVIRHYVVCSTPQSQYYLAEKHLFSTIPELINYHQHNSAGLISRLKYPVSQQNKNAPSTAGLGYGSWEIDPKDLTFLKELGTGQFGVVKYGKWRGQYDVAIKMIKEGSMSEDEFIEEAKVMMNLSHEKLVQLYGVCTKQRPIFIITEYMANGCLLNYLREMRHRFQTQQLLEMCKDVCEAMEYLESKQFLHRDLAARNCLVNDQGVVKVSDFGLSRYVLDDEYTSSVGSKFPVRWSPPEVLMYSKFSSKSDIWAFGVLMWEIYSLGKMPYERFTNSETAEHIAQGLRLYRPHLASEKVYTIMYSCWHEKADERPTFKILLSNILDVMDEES

IC50 (mouse splenocytes) [nM] | IC50 [1] [nM] | SMILES
147 | 20 | Cc1c(-c2ncnc3[nH]c(-c4ccc(C(=O)N5CCN(C)CC5)cc4)cc23)cccc1N1CCOc2cc(C3CC3)ccc2C1=O [Example K-1, 8-cyclopropyl-4-[2-methyl-3-[6-[4-(4-methylpiperazine-1-carbonyl)phenyl]-7H-pyrrolo[2,3-d]pyrimidin-4-yl]phenyl]-2,3-dihydro-1,4-benzoxazepin-5-one]
815 | 32 | Cc1c(-c2ncnc3[nH]c(-c4ccc(C(=O)N5CCC(O)CC5)cc4)cc23)cccc1N1CCOc2cc(C3CC3)ccc2C1=O [Example K-2, 8-cyclopropyl-4-[3-[6-[4-(4-hydroxypiperidine-1-carbonyl)phenyl]-7H-pyrrolo[2,3-d]pyrimidin-4-yl]-2-methyl-phenyl]-2,3-dihydro-1,4-benzoxazepin-5-one]
129 | 51 | Cc1c(-c2ncnc3[nH]c(-c4ccc(C(=O)N5CCC(C)(O)CC5)cc4)cc23)cccc1N1CCOc2cc(C3CC3)ccc2C1=O [Example K-4, 8-cyclopropyl-4-[3-[6-[4-(4-hydroxy-4-methyl-piperidine-1-carbonyl)phenyl]-7H-pyrrolo[2,3-d]pyrimidin-4-yl]-2-methyl-phenyl]-2,3-dihydro-1,4-benzoxazepin-5-one]
189 | 9.7 | Cc1c(-c2ncnc3[nH]c(-c4ccc(C(=O)N5CCNCC5)cc4)cc23)cccc1N1CCOc2cc(C3CC3)ccc2C1=O [Example K-6, 8-cyclopropyl-4-[2-methyl-3-[6-[4-(piperazine-1-carbonyl)phenyl]-7H-pyrrolo[2,3-d]pyrimidin-4-yl]phenyl]-2,3-dihydro-1,4-benzoxazepin-5-one]
> 1000 | 21 | Cc1c(-c2ncnc3[nH]c(-c4ccc(C(=O)N5CCC(O)CC5)cc4)cc23)cccc1N1CCc2cc(C3CC3)ccc2C1=O [Example K-16, 6-cyclopropyl-2-[3-[6-[4-(4-hydroxypiperidine-1-carbonyl)phenyl]-7H-pyrrolo[2,3-d]pyrimidin-4-yl]-2-methyl-phenyl]-3,4-dihydroisoquinolin-1-one]
> 1000 | 36 | Cc1c(-c2ncnc3[nH]c(-c4ccc(C(=O)N5CCNCC5)cc4)cc23)cccc1N1CCc2cc(C3CC3)ccc2C1=O [Example K-19, 6-cyclopropyl-2-[2-methyl-3-[6-[4-(piperazine-1-carbonyl)phenyl]-7H-pyrrolo[2,3-d]pyrimidin-4-yl]phenyl]-3,4-dihydroisoquinolin-1-one]
195 | 44 | Cc1c(-c2ncnc3[nH]c(-c4ccc(C(=O)N5CCC(O)CC5)cc4)cc23)cccc1-n1ncc2cc(C3CC3)ccc2c1=O [Example K-20, 6-cyclopropyl-2-[3-[6-[4-(4-hydroxypiperidine-1-carbonyl)phenyl]-7H-pyrrolo[2,3-d]pyrimidin-4-yl]-2-methyl-phenyl]phthalazin-1-one]
8 | 2 | NC(=O)c1ccc(-c2cc3c(-c4cccc(N5CCOc6cc(C7CC7)ccc6C5=O)c4CO)ccnc3[nH]2)nc1 [Example K-22, 6-[4-[3-(8-cyclopropyl-5-oxo-2,3-dihydro-1,4-benzoxazepin-4-yl)-2-(hydroxymethyl)phenyl]-1H-pyrrolo[2,3-b]pyridin-2-yl]pyridine-3-carboxamide]
67 | 8 | CC1(O)CCN(C(=O)c2ccc(-c3cc4c(-c5cccc(N6CCOc7cc(C8CC8)ccc7C6=O)c5CO)ccnc4[nH]3)nc2)CC1 [Example L-1, 8-cyclopropyl-4-[2-(hydroxymethyl)-3-[2-[5-(4-hydroxy-4-methyl-piperidine-1-carbonyl)-2-pyridyl]-1H-pyrrolo[2,3-b]pyridin-4-yl]phenyl]-2,3-dihydro-1,4-benzoxazepin-5-one]
87 | 9 | CC1(O)CCN(C(=O)c2ccc(-c3cc4c(-c5cccc(N6CCOc7cc(C8CC8)ccc7C6=O)c5CO)ccnc4[nH]3)cc2)CC1 [Example L-2, 8-cyclopropyl-4-[2-(hydroxymethyl)-3-[2-[4-(4-hydroxy-4-methyl-piperidine-1-carbonyl)phenyl]-1H-pyrrolo[2,3-b]pyridin-4-yl]phenyl]-2,3-dihydro-1,4-benzoxazepin-5-one]
21 | 8 | CC1(O)CCN(C(=O)c2ccc(-c3cc4c(-c5cccc(N6CCOc7cc(C8CC8)cc(F)c7C6=O)c5CO)ccnc4[nH]3)nc2)CC1 [Example L-3, 8-cyclopropyl-6-fluoro-4-[2-(hydroxymethyl)-3-[2-[5-(4-hydroxy-4-methyl-piperidine-1-carbonyl)-2-pyridyl]-1H-pyrrolo[2,3-b]pyridin-4-yl]phenyl]-2,3-dihydro-1,4-benzoxazepin-5-one]
61 | 33 | Cc1c(-c2nc(N)nc3[nH]c(-c4ccc(CN5CCN(C)CC5)cc4)cc23)cccc1N1CCOc2cc(C3CC3)ccc2C1=O [Example N-1, 4-[3-[2-amino-6-[4-[(4-methylpiperazin-1-yl)methyl]phenyl]-7H-pyrrolo[2,3-d]pyrimidin-4-yl]-2-methyl-phenyl]-8-cyclopropyl-2,3-dihydro-1,4-benzoxazepin-5-one]
171 | 55 | Cc1c(-c2nc(N)nc3[nH]c(-c4ccc(C(=O)N5CCOCC5)cc4)cc23)cccc1N1CCOc2cc(C3CC3)ccc2C1=O [Example O-1, 4-[3-[2-amino-6-[4-(morpholine-4-carbonyl)phenyl]-7H-pyrrolo[2,3-d]pyrimidin-4-yl]-2-methyl-phenyl]-8-cyclopropyl-2,3-dihydro-1,4-benzoxazepin-5-one]
14.6 | 2 | CN(C)C(=O)N1CC=C(c2cc3c(-c4cccc(N5CCOc6cc(C7CC7)ccc6C5=O)c4CO)ccnc3[nH]2)CC1 [Example P-5, 4-[4-[3-(8-cyclopropyl-5-oxo-2,3-dihydro-1,4-benzoxazepin-4-yl)-2-(hydroxymethyl)phenyl]-1H-pyrrolo[2,3-b]pyridin-2-yl]-N,N-dimethyl-3,6-dihydro-2H-pyridine-1-carboxamide]
104 | 7 | CC(C)N1CC(n2cnc(-c3cc4c(-c5cccc(N6CCOc7cc(C8CC8)ccc7C6=O)c5CO)ccnc4[nH]3)c2)C1 [Example P-9, 8-cyclopropyl-4-[2-(hydroxymethyl)-3-[2-[1-(1-isopropylazetidin-3-yl)imidazol-4-yl]-1H-pyrrolo[2,3-b]pyridin-4-yl]phenyl]-2,3-dihydro-1,4-benzoxazepin-5-one]
94 | 6 | CN(C)C(=O)N1CC=C(c2cc3c(-c4cccc(N5CCOc6cc(C(C)(C)O)ccc6C5=O)c4CO)ccnc3[nH]2)CC1 [Example P-10, 4-[4-[2-(hydroxymethyl)-3-[8-(1-hydroxy-1-methyl-ethyl)-5-oxo-2,3-dihydro-1,4-benzoxazepin-4-yl]phenyl]-1H-pyrrolo[2,3-b]pyridin-2-yl]-N,N-dimethyl-3,6-dihydro-2H-pyridine-1-carboxamide]
5.8 | 1 | CN(C)C(=O)N1CC=C(c2cc3c(-c4cccc(N5CCOc6cc(C7CC7)cc(F)c6C5=O)c4CO)ccnc3[nH]2)CC1 [Example P-14, 4-[4-[3-(8-cyclopropyl-6-fluoro-5-oxo-2,3-dihydro-1,4-benzoxazepin-4-yl)-2-(hydroxymethyl)phenyl]-1H-pyrrolo[2,3-b]pyridin-2-yl]-N,N-dimethyl-3,6-dihydro-2H-pyridine-1-carboxamide]
14.7 | 1 | CC1(O)CN(C(=O)N2CC=C(c3cc4c(-c5cccc(N6CCOc7cc(C8CC8)cc(F)c7C6=O)c5CO)ccnc4[nH]3)CC2)C1 [Example P-15, 8-cyclopropyl-6-fluoro-4-[2-(hydroxymethyl)-3-[2-[1-(3-hydroxy-3-methyl-azetidine-1-carbonyl)-3,6-dihydro-2H-pyridin-4-yl]-1H-pyrrolo[2,3-b]pyridin-4-yl]phenyl]-2,3-dihydro-1,4-benzoxazepin-5-one]
5.4 | 1.7 | O=C(N1CC=C(c2cc3c(-c4cccc(N5CCOc6cc(C7CC7)cc(F)c6C5=O)c4CO)ccnc3[nH]2)CC1)N1CCOCC1 [Example P-18, 8-cyclopropyl-6-fluoro-4-[2-(hydroxymethyl)-3-[2-[1-(morpholine-4-carbonyl)-3,6-dihydro-2H-pyridin-4-yl]-1H-pyrrolo[2,3-b]pyridin-4-yl]phenyl]-2,3-dihydro-1,4-benzoxazepin-5-one]
20 | 14.6 | CCN(CC)C(=O)N1CC=C(c2cc3c(-c4cccc(N5CCOc6cc(C7CC7)cc(F)c6C5=O)c4CO)ccnc3[nH]2)CC1 [Example P-19, 4-[4-[3-(8-cyclopropyl-6-fluoro-5-oxo-2,3-dihydro-1,4-benzoxazepin-4-yl)-2-(hydroxymethyl)phenyl]-1H-pyrrolo[2,3-b]pyridin-2-yl]-N,N-diethyl-3,6-dihydro-2H-pyridine-1-carboxamide]
59 | 4 | O=C1c2c(F)cc(C3CC3)cc2OCCN1c1cccc(-c2ccnc3[nH]c(C4=CCN(C5CCOC5)CC4)cc23)c1CO (centres unmarked) [Example P-21, 8-cyclopropyl-6-fluoro-4-[2-(hydroxymethyl)-3-[2-(1-tetrahydrofuran-3-yl-3,6-dihydro-2H-pyridin-4-yl)-1H-pyrrolo[2,3-b]pyridin-4-yl]phenyl]-2,3-dihydro-1,4-benzoxazepin-5-one]
57 | 1.2 | O=C(CN1CC=C(c2cc3c(-c4cccc(N5CCOc6cc(C7CC7)cc(F)c6C5=O)c4CO)ccnc3[nH]2)CC1)N1CCC1 [Example P-22, 4-[3-[2-[1-[2-(azetidin-1-yl)-2-oxo-ethyl]-3,6-dihydro-2H-pyridin-4-yl]-1H-pyrrolo[2,3-b]pyridin-4-yl]-2-(hydroxymethyl)phenyl]-8-cyclopropyl-6-fluoro-2,3-dihydro-1,4-benzoxazepin-5-one]

Source: patent US9233983B2, “Substituted hetero-bicyclic compounds, compositions and medicinal applications thereof” (ADVINUS THERAPEUTICS LIMITED, priority 2012, dated 2016)
